Measurements from the supplement of paper PMC10883282.

Columns and labels:
Experiment in all cases: standardised AUC of viability dose-response curve (72 h) (fraction (0-1)); higher = less growth inhibition (more resistant)
A204 = test system: A204
Method in brief: (§1)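 After 72 h with 2.5 µl of compound (compound-plate series 10 mM to 0.0002 mM), triplicate wells of sarcoma cell lines in 384-well plates were read with ATPLite, with viability scaled 1 (full) to 0 (none) and fitted with a four-parameter log-logistic model. The values give the standardised area under the dose-response curve in log-dose space from a modified drexplorer computeAUC. A value of 1 means no response and 0 means full response.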

G401 = test system: G401
Method in brief: as §1

HS729 = test system: HS729
Method in brief: as §1

HT1080 = test system: HT1080
Method in brief: as §1

KHOS-240S = test system: KHOS-240S
Method in brief: as §1

KHOS-NP = test system: KHOS-NP
Method in brief: as §1

MES-SA = test system: MES-SA
Method in brief: as §1

RD-ES = test system: RD-ES
Method in brief: as §1

RD = test system: RD
Method in brief: as §1

SK-ES-1 = test system: SK-ES-1
Method in brief: as §1

SK-LMS-1 = test system: SK-LMS-1
Method in brief: as §1

SW1353 = test system: SW1353
Method in brief: as §1

SW684 = test system: SW684
Method in brief: as §1

SW872 = test system: SW872
Method in brief: as §1

SW982 = test system: SW982
Method in brief: as §1

SYO-1 = test system: SYO-1
Method in brief: as §1

VA-ES-BJ = test system: VA-ES-BJ
Method in brief: as §1

Compound	standardised AUC (A204)	standardised AUC (G401)	standardised AUC (HS729)	standardised AUC (HT1080)	standardised AUC (KHOS-240S)	standardised AUC (KHOS-NP)	standardised AUC (MES-SA)	standardised AUC (RD-ES)	standardised AUC (RD)	standardised AUC (SK-ES-1)	standardised AUC (SK-LMS-1)	standardised AUC (SW1353)	standardised AUC (SW684)	standardised AUC (SW872)	standardised AUC (SW982)	standardised AUC (SYO-1)	standardised AUC (VA-ES-BJ)
CCC(=O)N1CC[C@H](Nc2ncnc3c2CN(c2cnc(OC)c(C(F)(F)F)c2)CC3)C1 [LENIOLISIB]	0.929	0.929	0.935	0.961	0.962	0.97	0.955	0.95	0.988	0.96	0.927	0.934	0.83	0.947	0.955	0.923	0.955
Cn1ncnc1[C@H]1c2n[nH]c(=O)c3cc(F)cc(c23)N[C@@H]1c1ccc(F)cc1 [TALAZOPARIB]	0.79	0.817	0.936	0.83	0.86	0.919	0.675	0.433	0.832	0.376	0.905	0.836	0.956	0.826	0.749	0.48	0.725
Cc1cc2cc(Oc3ccnc(Nc4cccc(CS(=O)(=O)NCCN(C)C)c4)n3)ccc2[nH]1 [SULFATINIB]	0.805	0.909	0.874	0.99	0.931	0.982	0.95	0.962	0.964	0.955	0.965	0.97	0.966	0.96	0.924	0.759	0.987
Cc1[nH]c(/C=C2\C(=O)Nc3ccc(F)cc32)c(C)c1C(=O)NCCN1CCCC1 [TOCERANIB]	0.669	0.923	0.739	0.908	0.841	0.931	0.82	0.778	0.957	0.795	0.891	0.926	0.937	0.864	0.833	0.632	0.918
CN1CCN(c2ccc(C(=O)Nc3n[nH]c4ccc(Cc5cc(F)cc(F)c5)cc34)c(NC3CCOCC3)c2)CC1 [ENTRECTINIB]	0.944	0.904	0.915	0.957	0.901	0.973	0.933	0.88	0.888	0.87	0.928	0.924	0.927	0.893	0.885	0.868	0.957
COc1cc(OC)c(/C=C/S(=O)(=O)Cc2ccc(OC)c(NCC(=O)O)c2)c(OC)c1 [RIGOSERTIB]	0.779	0.852	0.882	0.707	0.636	0.805	0.681	0.644	0.712	0.584	0.719	0.822	0.851	0.854	0.748	0.827	0.755
N#CCNC(=O)c1ccc(-c2ccnc(Nc3ccc(N4CCOCC4)cc3)n2)cc1 [MOMELOTINIB]	0.829	0.889	0.922	1	0.91	0.979	0.863	0.944	0.994	0.815	0.941	0.893	0.907	0.898	0.861	0.839	0.964
CC(C)NC[C@@H](C(=O)N1CCN(c2ncnc3c2[C@H](C)C[C@H]3O)CC1)c1ccc(Cl)cc1 [IPATASERTIB]	0.843	0.836	0.817	0.969	0.921	0.954	0.781	0.848	0.898	0.851	0.885	0.891	0.848	0.805	0.916	0.791	0.769
Cc1cccc(-c2nn3c(c2-c2ccnc4ccc(C(N)=O)cc24)CCC3)n1 [GALUNISERTIB]	0.976	0.993	0.91	0.982	0.955	0.956	0.969	0.972	0.998	0.968	0.974	0.976	0.992	0.962	0.992	0.853	1
CC(C)(O)CNc1nc(Nc2ccnc(C(F)(F)F)c2)nc(-c2cccc(C(F)(F)F)n2)n1 [ENASIDENIB]	0.972	0.992	0.997	0.999	0.995	0.981	0.99	0.992	0.984	0.945	0.998	0.99	0.973	0.998	1	0.958	0.991
CCN1C(=O)N(c2c(F)c(OC)cc(OC)c2F)Cc2cnc3[nH]c(CN4CCOCC4)cc3c21 [PEMIGATINIB]	0.685	0.696	0.748	0.97	0.88	0.991	0.822	0.942	0.938	0.839	0.924	0.861	0.951	0.946	0.889	0.804	0.951
O=C(Nc1ccc(OC(F)(F)Cl)cc1)c1cnc(N2CC[C@@H](O)C2)c(-c2cc[nH]n2)c1 [ASCIMINIB]	0.947	0.989	0.985	0.969	0.983	0.962	0.975	0.965	0.994	0.979	0.957	1	0.987	0.997	0.987	0.94	0.996
C[C@]12O[C@H](C[C@]1(O)CO)n1c3ccccc3c3c4c(c5c6ccccc6n2c5c31)CNC4=O [LESTAURTINIB]	0.646	0.821	0.762	0.802	0.72	0.762	0.64	0.62	0.821	0.526	0.721	0.764	0.805	0.655	0.614	0.656	0.667
O=S(=O)(c1cccc2cnccc12)N1CCCNCC1 [FASUDIL]	0.981	1	0.982	0.997	0.982	0.994	0.993	1	1	1	0.986	0.981	0.978	0.992	0.991	0.997	0.996
Cc1ccc(Nc2nccc(N(C)c3ccc4c(C)n(C)nc4c3)n2)cc1S(N)(=O)=O [PAZOPANIB]	0.699	0.914	0.91	0.999	0.951	0.978	0.964	0.988	0.997	0.966	0.974	0.98	0.99	0.984	0.987	0.78	1
CC#CC(=O)N1CCC[C@H]1c1nc(-c2ccc(C(=O)Nc3ccccn3)cc2)c2c(N)nccn12 [ACALABRUTINIB]	0.985	0.992	0.995	0.998	0.986	1	0.996	0.998	0.976	0.993	0.996	0.963	0.996	0.992	0.98	0.989	1
CNC(=O)c1ccccc1Sc1ccc2c(/C=C/c3ccccn3)n[nH]c2c1 [AXITINIB]	0.545	0.857	0.826	0.963	0.849	0.93	0.857	0.926	0.89	0.863	0.975	0.928	0.954	0.859	0.887	0.669	0.901
